The values below come from US20250160330A1, “METHOD FOR CONTROLLING HARMFUL ARTHROPODS OR HARMFUL NEMATODES USING ZOANTHAMINE ANALOG” (SUMITOMO CHEMICAL COMPANY, LIMITED, priority 2022, published 2025).

Like-named read-outs stand apart in the source and are kept apart here. A value given as a limit tells only on which side of the number the result lay.

In assay [1] the test system is cotton worm (Spodoptera litura). The experiment in a line: Test method 1: foliar spray on cabbage seedling, cotton worm larvae. In kind it is in vivo. Conditions: 144 h, read-out: mortality of insects. As to the method:
The test compounds are made to a formulation according to a similar method to that described in the Formulation Example 5, and thereto is added water containing 0.03 v/v % of Shindain (registered trademark) to prepare a diluted solution containing a prescribed concentration of the test compound.
(§1) Cabbage (Brassicae oleracea) seedling (on the developmental stage of the third to fourth true leaf) is planted in a cup, and the diluted solutions are sprayed into the seedling at a ratio of 20 mL/seedling. Thereafter, ten (10) cotton worm (Spodoptera litura) at the third instar larval stage are released. After 6 days, the number of the surviving insects is counted, and the mortality of insects is calculated by the following equation.

For assay [2] the test system is unchanged. Description: Test method 2: foliar spray on cabbage seedling, cotton worm larvae. The format is in vivo. The note with it: 144 h, read-out: mortality of insects. As to the method:
(§2) Test compounds are made to a formulation according to a similar method to that described in the Formulation Example 5, and thereto is added water containing 0.03 v/v % of Shindain (registered trademark) to prepare a diluted solution containing a prescribed concentration of the test compound.
as §1

For assay [3], the system named is brown planthoppers (Nilaparvata lugens). The experiment in a line: Test method 4: foliar spray on rice seedling, brown planthopper larvae. The format is in vivo. Conditions: 144 h, read-out: mortality of insects. As to the method:
as §2
Rice (Oryza sativa) seedling (on the developmental stage of the second true leaf) is planted in a cup, and the diluted solutions are sprayed into the seedling at a ratio of 10 mL/seedling. Thereafter, twenty (20) of 3rd instar larvae of brown planthoppers (Nilaparvata lugens) are released onto the rice leaves. After 6 days, the number of the surviving insects is examined and the mortality of insects is calculated by the following equation.

Assay [4] relates to cotton aphids (Aphis gossypii). The experiment in a line: Test method 3: foliar spray on cucumber seedling infested with cotton aphids. Conditions: read-out: mortality of insects.
Assay [5] concerns silverleaf whiteflies (Bemisia tabaci). Description: Test method 6: foliar spray on tomato seedling with silverleaf whitefly larvae. Conditions: in Solanum lycopersicum, 168 h, read-out: mortality of insects.
In assay [6] the test system is western flower thrips (Frankliniella occidentalis). Description: Test method 5: sprayed cucumber leaf, western flower thrips larvae. In kind it is in vivo. The note with it: 144 h, read-out: mortality of insects. As to the method: as §2
Cucumber (Cucumber sativus) seedling (on the developmental stage of the second true leaf) is planted in a cup, and the diluted solutions are sprayed into the seedling at a ratio of 10 mL/seedling. Thereafter, the second true leaf is cut, and the cut leaf was placed in the cup, and approximately twenty (20) of larvae of western flower thrips (Frankliniella occidentalis) larvae are released onto the leaf. After 6 days, the number of the surviving insects is examined and the mortality of insects is calculated by the following equation.

For assay [7], the system named is northern house mosquitos (Culex pipiens pipiens). The experiment in a line: Test method 8: coated container contact test, northern house mosquito female adults. The format is in vivo. The note with it: 24 h, read-out: mortality of insects. As to the method: The test compounds are dissolved with acetone containing a surfactant, and the solution was then poured into a container of 20 mL contents, and the solution was coating uniformly in the inner face of the container such that the test compound is made 10 mg/m^2, and the surfactant is made 40 mg/m^2, and the container is dried.
Five (5) of female adult of northern house mosquitos (Culex pipiens pipiens) are placed in the contained, and the contained is put the lid. After the passing of the prescribed times, the state of the northern house mosquitos are examined, and the mortality is calculated by the following equation.

The mark [8] stands for this setting: 200 ppm, spray 20 mL/seedling on cabbage, third instar larvae, after 6 days, 25° C.
[9] abbreviates: 200 ppm, spray 20 mL/seedling on cabbage, third instar larvae, after 6 days, 25° C. (test method 2).
The mark [10] stands for this setting: 200 ppm, spray 10 mL/seedling on cucumber, cut second true leaf, larvae, after 6 days, 25° C.
The mark [11] stands for this setting: 10 mg/m^2 coated on inner face of container, female adults, after one (1) day, 25° C.
Where [12] appears, read: 200 ppm, spray 10 mL/seedling on rice, 3rd instar larvae, after 6 days, 25° C.

For `CC1=CC(=O)[C@@H]2[C@@H](C1)[C@]1(C)C[C@@]34OC(=O)C[C@@](C)([C@H]1C(=O)[C@@H]2CO)[C@]3(C)CCC12C[C@@H](C)C[C@H](CN14)O2` [A-1], the mortality (as a rule, the percentage killed) at 200 ppm in assay [1] is at least 80%; in assay [2], at least 80%; in assay [3], at least 90%; in assay [4], at least 90%; in assay [5], at least 90%.

For the molecule `C[C@@H]1CC(=O)[C@H]2CC(=O)[C@H]3[C@@](C)(C[C@@]45OC(=O)C[C@]3(C)[C@]4(C)CC[C@]34C[C@@H](C)C[C@H](CN35)O4)[C@@H]2C1` [A-18], the mortality at 200 ppm in assay [1] is at least 80%; in assay [2], at least 80%; in assay [3] it was at least 90%; in assay [6], at least 90%; in assay [4], at least 90%.

Turning to `CC1CC(=O)[C@@H]2[C@@H](C1)[C@]1(C)C[C@@]34OC(=O)C[C@@](C)([C@H]1C(=O)[C@@H]2C)[C@]3(C)CC[C@]12C[C@@H](C)C[C@H](CN14)O2` (stereo partly drawn) [A-19], the mortality at 200 ppm is at least 80% in assay [1]; at least 80% in assay [2]; at least 90% in assay [3]; at least 90% in assay [6]; at least 90% in assay [4]. In assay [7], the mortality at 10 mg/m2 was at least 80%.

On to `CC1=CC(=O)[C@@H]2[C@@H](C1)[C@@]1(C)[C@H](C(=O)[C@@H]2C)[C@]2(C)CC(=O)O[C@@]3([C@H]1Cl)N1C[C@H]4C[C@H](C)C[C@]1(CC[C@@]23C)O4` [AA-2], for which the mortality at 200 ppm in assay [1] was at least 80%; in assay [2], at least 80%; in assay [3], at least 90%; in assay [6] it was at least 90%; in assay [4], at least 90%; in assay [5], at least 90%. Moreover, in assay [7], the mortality at 10 mg/m2 was at least 80%.

With `CC[C@H]1C(=O)[C@H]2[C@@](C)(C[C@@]34OC(=O)C[C@]2(C)[C@]3(C)CC[C@]23C[C@@H](C)C[C@H](CN24)O3)[C@@H]2CC(C)=CC(=O)[C@H]21` [AA-3], the mortality at 200 ppm in assay [1] is at least 80%; in assay [2], at least 80%; in assay [3], at least 90%; in assay [4], at least 90%; in assay [5] it was at least 90%. The mortality at 10 mg/m2 in assay [7] was at least 80%.

Turning to `Cc1cc(O)c2c(c1)[C@]1(C)C[C@@]34OC(=O)C[C@@](C)([C@H]1C(=O)[C@@H]2C)[C@]3(C)CC[C@@]12C[C@@H](C)C[C@H](CN14)O2` [B-1], the mortality at 200 ppm in assay [1] was at least 80%; in assay [2] it was at least 80%; in assay [6] it was at least 90%; in assay [4], at least 90%. For the same molecule, the mortality at 10 mg/m2 in assay [7] is at least 80%.

With `Cc1cc(O)c2c(c1)[C@]1(C)C[C@@]34OC(=O)C[C@@](C)([C@H]1C(=O)C2)[C@]3(C)CC[C@]12C[C@@H](C)C[C@H](CN14)O2` [B-2], the mortality at 200 ppm in assay [1] was at least 80%; in assay [2] it was at least 80%; in assay [3], at least 90%; in assay [4] it was at least 90%. For the same molecule, the mortality at 10 mg/m2 in assay [7] is at least 80%.

As to `CC(=O)Oc1cc(C)cc2c1CC(=O)[C@H]1[C@@]2(C)C[C@@]23OC(=O)C[C@]1(C)[C@]2(C)CC[C@]12C[C@@H](C)C[C@H](CN13)O2` [BB-1], the mortality at 200 ppm in assay [1] (setting [8]) is at least 80%; in assay [2] (setting [9]), at least 80%; in assay [6] (setting [10]) it was at least 90%; in assay [4], at least 90%. In addition, in assay [7] (setting [11]), the mortality at 10 mg/m2 is at least 80%.

`COC(=O)C[C@@]1(C)[C@H]2C(=O)C[C@@H]3C(=O)C=C(C)C[C@H]3[C@]2(C)C=C2N3C[C@H]4C[C@H](C)C[C@]3(CC[C@]21C)O4` [E-1]: the mortality at 200 ppm in assay [2] was at least 80%; in assay [3], at least 90%; in assay [6], at least 90%; in assay [4], at least 90%; in assay [5] it was at least 90%. In assay [7], the mortality at 10 mg/m2 was at least 80%.

`COC(=O)C[C@@]1(C)[C@H]2C(=O)CC3C(=O)CC(C)CC3[C@]2(C)C=C2N3C[C@H]4C[C@H](C)C[C@]3(CC[C@]21C)O4` (stereo partly drawn) [EE-1]: the mortality at 200 ppm in assay [6] (setting [10]), in assay [4] and in assay [5] was at least 90% throughout. For the same molecule, the mortality at 10 mg/m2 in assay [7] (setting [11]) is at least 80%.

With `CC1CC(=O)C2CC(=O)[C@H]3[C@@](C)(CC4=[N+]5C[C@H]6C[C@H](C)C[C@]5(CC[C@@]4(C)[C@@]3(C)CC(=O)O)O6)C2C1` (stereo partly drawn) [EE-2], the mortality at 200 ppm in assay [1] is at least 80%; in assay [2], at least 80%; in assay [3], at least 90%; in assay [6], at least 90%; in assay [4], at least 90%; in assay [5], at least 90%. Further, in assay [7], the mortality at 10 mg/m2 was at least 80%.

With `CC1=CC(=O)[C@@H]2[C@@H](C1)[C@]1(C)C[C@H]3N4C[C@H]5C[C@H](C)C[C@]4(CC[C@@]3(C)[C@@](C)(CC(=O)O)[C@H]1C(=O)[C@@H]2C)O5` [EE-3], the mortality at 200 ppm is at least 80% in assay [1] (setting [8]), at least 90% in assay [3] (setting [12]), at least 90% in assay [6] (setting [10]) and at least 90% in assay [4]. The mortality at 10 mg/m2 in assay [7] (setting [11]) was at least 80%.

Turning to `COC(=O)C[C@@]1(C)[C@H]2C(=O)[C@H](C)[C@@H]3C(=O)C=C(C)C[C@H]3[C@]2(C)C=C2N3C[C@H]4C[C@H](C)C[C@]3(CC[C@]21C)O4` [EE-4], the figures for the mortality at 200 ppm in assay [2] (setting [9]), in assay [3] (setting [12]) and in assay [6] (setting [10]) were at least 80%, at least 90% and at least 90%, respectively. The mortality at 10 mg/m2 in assay [7] (setting [11]) was at least 80%.

For the molecule `COC(=O)C[C@@]1(C)[C@H]2C(=O)[C@H](C)[C@@H]3C(=O)C=C(C)C[C@H]3[C@]2(C)C[C@H]2N3C[C@H]4C[C@H](C)C[C@]3(CC[C@]21C)O4` [EE-5], the mortality at 200 ppm is at least 80% in assay [1]; at least 80% in assay [2]; at least 90% in assay [3]; at least 90% in assay [6]; at least 90% in assay [4]. The mortality at 10 mg/m2 in assay [7] was at least 80%.

For `CC1CC(O)C2CC(=O)[C@H]3[C@@](C)(CC4N5C[C@H]6C[C@H](C)C[C@]5(CC[C@@]4(C)[C@@]3(C)CC(=O)O)O6)C2C1` (stereo partly drawn) [EE-6], the mortality at 200 ppm in assay [2] (setting [9]) is at least 80%; in assay [6] (setting [10]), at least 90%. Further, the mortality at 10 mg/m2 in assay [7] (setting [11]) was at least 80%.

With `CC1CC(O)[C@H]2CC(=O)[C@H]3[C@@](C)(CC4N5C[C@H](O)C[C@H](C)CC5CC[C@@]4(C)[C@@]3(C)CC(=O)O)[C@@H]2C1` (stereo partly drawn) [GG-1], the mortality at 200 ppm in assay [3] is at least 90%. Besides, the mortality at 10 mg/m2 in assay [7] is at least 80%.

With `COC(=O)C[C@@]1(C)[C@H]2C(=O)C[C@@H]3C(=O)CC(C)C[C@H]3[C@]2(C)CC2N3C[C@H](O)C[C@H](C)CC3CC[C@]21C` (stereo partly drawn) [GG-2], in assay [7], the mortality at 10 mg/m2 is at least 80%.

With `CC1=CC(=O)[C@@H]2[C@@H](C1)[C@]1(C)CC3N4C[C@H](O)C[C@H](C)C[C@@H]4CC[C@@]3(C)[C@@](C)(CC(=O)O)[C@H]1C(=O)[C@@H]2C` (stereo partly drawn) [GG-3], the mortality at 200 ppm was at least 80% in assay [1], at least 90% in assay [3], at least 90% in assay [6] and at least 90% in assay [4]. The mortality at 10 mg/m2 in assay [7] was at least 80%.
